The target in the assay is T1, mu opiate receptor (MOR) (Rattus norvegicus, UniProt P33535).
T1 construct: from tissue; host or cells: rat striatal membrane preparation
The experiment in a line: MOR agonist activity using [35S]GTPγS binding assay in striatal membranes. Type of assay: biochemical. To be noted: for MOR agonist activity, [35S]GTPγS binding to Gαo, FLNA-binding compound as agonist 0.1 μM: 0.1 μM compound; for MOR agonist activity, [35S]GTPγS binding to Gαo, FLNA-binding compound as agonist 0.1 μM / MOR agonist activity, [35S]GTPγS binding to Gαo, FLNA-binding compound as agonist 1 μM: striatal membranes; for MOR agonist activity, [35S]GTPγS binding to Gαo, 1 μM + BFNA: 1 μM compound + 1 μM β-funaltrexamine; for MOR agonist activity, [35S]GTPγS binding to Gαo, FLNA-binding compound as agonist 1 μM: 1 μM compound. Here is the method:
To assess the mu opiate receptor (MOR) agonist activity of positive compounds from the FLNA screening, compounds were tested in a [^35S]GTPγS binding assay using striatal membranes.
Striatal tissue was homogenized in 10 volumes of ice cold 25 mM HEPES buffer, pH 7.4, which contained 1 mM EGTA, 100 mM sucrose, 50 μg/ml leupeptin, 0.04 mM PMSF, 2 μg/ml soybean trypsin inhibitor and 0.2% 2-mercaptoethanol. The homogenates were centrifuged at 800×g for 5 minutes and the supernatants were centrifuged at 49,000×g for 20 minutes.
The resultant striatal membrane preparation (200 μg) was admixed and maintained (incubated) at 30° C. for 5 minutes in reaction buffer as above that additionally contained 1 mM MgCl2 and 0.5 nM [^35S]GTPγS (0.1 μCi/assay, PerkinElmer Life and Analytical Sciences) in a total volume of 250 μl and continued for 5 minutes in the absence or presence of 0.1-10 μM of an assayed compound of interest. The reaction was terminated by dilution with 750 μl of ice-cold reaction buffer that contained 20 mM MgCl2 and 1 mM EGTA and immediate centrifugation at 16,000×g for 5 minutes.
The resulting pellet was solubilized by sonicating for 10 seconds in 0.5 ml of immunoprecipitation buffer containing 0.5% digitonin, 0.2% sodium cholate and 0.5% NP-40. Normal rabbit serum (1 μl) was added to 1 ml of lysate and incubated at 25° C. for 30 minutes. Nonspecific immune complexes were removed by incubation with 25 μl of protein A/G-conjugated agarose beads at 25° C. for 30 minutes followed by centrifugation at 5,000×g at 4° C. for 5 minutes. The supernatant was divided and separately incubated at 25° C. for 30 minutes with antibodies raised against Gαo proteins (1:1,000 dilutions).
The immunocomplexes so formed were collected by incubation at 25° C. for 30 minutes with 40 μl of agarose-conjugated protein A/G beads and centrifugation at 5,000×g at 4° C. for 5 minutes. The pellet was washed and suspended in buffer containing 50 mM Tris-HCl, pH 8.0, and 1% NP-40. The radioactivity in the suspension was determined by liquid scintillation spectrometry. […] DAMGO (H-Tyr-D-Ala-Gly-N-MePhe-Gly-OH; 1 or 10 μM) was used as a positive control.
Background: GTPγS resists hydrolysis and so accumulates on activated G proteins.

T1 sequence (P33535 whole entry): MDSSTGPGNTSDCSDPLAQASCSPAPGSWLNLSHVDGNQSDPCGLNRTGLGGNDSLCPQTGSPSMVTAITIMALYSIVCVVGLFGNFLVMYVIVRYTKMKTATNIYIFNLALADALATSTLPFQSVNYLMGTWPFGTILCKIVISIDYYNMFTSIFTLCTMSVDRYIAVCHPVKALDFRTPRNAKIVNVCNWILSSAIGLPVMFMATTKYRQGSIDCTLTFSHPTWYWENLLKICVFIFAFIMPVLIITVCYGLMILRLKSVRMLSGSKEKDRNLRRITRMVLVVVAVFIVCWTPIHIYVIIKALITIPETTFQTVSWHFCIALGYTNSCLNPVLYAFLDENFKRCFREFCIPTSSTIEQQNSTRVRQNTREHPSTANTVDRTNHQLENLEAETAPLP

Take `CC(=O)c1ccc(S(=O)(=O)N2CCC3(CC2)NC(=O)CN3S(=O)(=O)c2ccc(C(C)=O)cc2)cc1` [Compound C0064]: the “MOR agonist activity, [35S]GTPγS binding to Gαo, FLNA-binding compound as agonist 0.1 μM” value (shortened to “MOR agonist activity … as agonist 0.1 μM”) worked out at 213.8%; the “MOR agonist activity, [35S]GTPγS binding to Gαo, 1 μM + BFNA” value (shortened to “MOR agonist activity … 1 μM + BFNA”) is 38.1%; the “MOR agonist activity, [35S]GTPγS binding to Gαo, FLNA-binding compound as agonist 1 μM” value (shortened to “MOR agonist activity … as agonist 1 μM”) came to 349.6%.
For `O=S(=O)(c1ccc(C(F)(F)F)cc1Br)N1CCC2(CC1)OCCN2S(=O)(=O)c1ccc(C(F)(F)F)cc1Br` [Compound C0071], the “MOR agonist activity … as agonist 0.1 μM” value amounted to 276.3%; the “MOR agonist activity … 1 μM + BFNA” value is given as 177.1%; the “MOR agonist activity … as agonist 1 μM” value came to 355.3%.
In the same order, the values of `O=S(=O)(c1cccc(OC(F)(F)F)c1)N1CCC2(CC1)OCCN2S(=O)(=O)c1cccc(OC(F)(F)F)c1` [Compound C0005] are 180.4%, 166.4% and 227.2%.
Take `COc1ccc(S(=O)(=O)N2CCC3(CC2)OCCN3S(=O)(=O)c2ccc(OC)c(OC)c2)cc1OC` [Compound C0049]: the “MOR agonist activity … as agonist 0.1 μM” value is recorded as 106.6%; the “MOR agonist activity … 1 μM + BFNA” value worked out at 81.0%; the “MOR agonist activity … as agonist 1 μM” value is 210.0%.
Regarding `O=S(=O)(c1ccc(Br)c(C(F)(F)F)c1)N1CCC2(CC1)OCCN2S(=O)(=O)c1ccc(Br)c(C(F)(F)F)c1` [Compound C0077], the “MOR agonist activity … as agonist 0.1 μM” value was 192.7%; the “MOR agonist activity … 1 μM + BFNA” value is listed as 136.7%; the “MOR agonist activity … as agonist 1 μM” value was determined as 265.4%.
For `Cc1ccccc1S(=O)(=O)N1CCC2(CC1)OCCN2S(=O)(=O)c1ccccc1C` [Compound C0015], the “MOR agonist activity … as agonist 0.1 μM” value is listed as 138.7%; the “MOR agonist activity … 1 μM + BFNA” value is on record as 126.8%; the “MOR agonist activity … as agonist 1 μM” value turned out to be 204.7%.
For `O=C(OCc1ccccc1)c1ccc(S(=O)(=O)N2CCC3(CC2)OCCN3S(=O)(=O)c2ccc(C(=O)OCc3ccccc3)cc2)cc1` [Compound C0042] the same measures were 167.1%, 110.6% and 260.9%.
For `CC(=O)c1ccc(C(=O)N2CCOC23CCN(S(=O)(=O)c2ccc(C(C)=O)cc2)CC3)cc1` [Compound C0053] the same measures were 104.0%, 93.1% and 157.2%.
For `COC(=O)c1ccc(S(=O)(=O)N2CCC3(CC2)OCCN3S(=O)(=O)c2ccc(C(=O)OC)cc2)cc1` [Compound C0028] the same measures were 93.9%, 78.4% and 132.4%.
For `O=S(=O)(c1ccc(Br)cc1)N1CCC2(CC1)OCCN2S(=O)(=O)c1ccc(Br)cc1` [Compound C0025], the “MOR agonist activity … as agonist 0.1 μM” value is recorded as 235.7%; the “MOR agonist activity … 1 μM + BFNA” value was determined as 80.2%; the “MOR agonist activity … as agonist 1 μM” value amounted to 320.7%.
For `CC(=O)c1ccc(S(=O)(=O)N2CCC3(CC2)OCC(CCCCN(C)C)N3S(=O)(=O)c2ccc(C(C)=O)cc2)cc1` (stereo not drawn) [Compound C0080M] the same measures were 187.9%, 167.1% and 205.4%.
In the same order, the values of `CC(=O)c1ccc(C(=O)N2CCC3(CC2)OCCN3C(=O)c2ccc(C(C)=O)cc2)cc1` [Compound C0054] are 68.2%, 43.5% and 127.0%.
For `O=S(=O)(c1ccc(OC(F)(F)F)cc1)N1CCC2(CC1)OCCN2S(=O)(=O)c1ccc(OC(F)(F)F)cc1` [Compound C0006] the same measures were 121.5%, 4.6% and 204.0%.
With `O=S(=O)(c1ccc(-c2ccccc2)cc1)N1CCC2(CC1)OCCN2S(=O)(=O)c1ccc(-c2ccccc2)cc1` [Compound C0010], the “MOR agonist activity … as agonist 0.1 μM” value is reported as 136.5%; the “MOR agonist activity … 1 μM + BFNA” value amounted to 89.1%; the “MOR agonist activity … as agonist 1 μM” value worked out at 307.0%.
Take `O=S(=O)(c1ccc(Cl)cc1)N1CCC2(CC1)OCCN2S(=O)(=O)c1ccc(Cl)cc1` [Compound C0067]: the “MOR agonist activity … as agonist 0.1 μM” value amounted to 142.7%; the “MOR agonist activity … 1 μM + BFNA” value amounted to 33.5%; the “MOR agonist activity … as agonist 1 μM” value was 179.0%.
On to `COc1ccc(S(=O)(=O)N2CCC3(CC2)OCCN3S(=O)(=O)c2ccc(C(C)=O)cc2)cc1` [Compound C0048], for which the “MOR agonist activity … as agonist 0.1 μM” value is 209.1%; the “MOR agonist activity … 1 μM + BFNA” value was 89.9%; the “MOR agonist activity … as agonist 1 μM” value stood at 245.3%.
In the same order, the values of `COc1ccc(C(=O)N2CCOC23CCN(S(=O)(=O)c2ccc(OC)cc2)CC3)cc1` [Compound C0019] are 104.4%, 52.8% and 176.6%.
In the same order, the values of `COc1ccc(NC(=O)N2CCC3(CC2)OCCN3S(=O)(=O)c2ccc(OC)cc2)cc1` [Compound C0041] are 186.1%, 95.5% and 244.4%.
As to `O=S(=O)(c1cccc2cccnc12)N1CCC2(CC1)OCCN2S(=O)(=O)c1cccc2cccnc12` [Compound C0143M], the “MOR agonist activity … as agonist 0.1 μM” value is 81.0%; the “MOR agonist activity … 1 μM + BFNA” value turned out to be 86.5%; the “MOR agonist activity … as agonist 1 μM” value is on record as 193.3%.
For `O=S(=O)(c1ccc(F)c(F)c1)N1CCC2(CC1)OCCN2S(=O)(=O)c1ccc(F)c(F)c1` [Compound C0072] the same measures were 172.7%, 67.1% and 259.1%.
As to `CC(C)c1ccc(S(=O)(=O)N2CCC3(CC2)OCCN3S(=O)(=O)c2ccc(C(C)C)cc2)cc1` [Compound C0007], the “MOR agonist activity … as agonist 0.1 μM” value is on record as 79.1%; the “MOR agonist activity … 1 μM + BFNA” value was 10.9%; the “MOR agonist activity … as agonist 1 μM” value was 195.0%.
`COc1ccc(S(=O)(=O)N2CCC3(CC2)OCCN3S(=O)(=O)c2ccc(OC)cc2)cc1` [Compound 7866]: the “MOR agonist activity … as agonist 0.1 μM” value came to 152.3%; the “MOR agonist activity … 1 μM + BFNA” value is listed as 62.4%; the “MOR agonist activity … as agonist 1 μM” value is reported as 308.2%.
On to `O=C1CN(Cc2ccccc2)C2(CCN(S(=O)(=O)c3cc(Cl)cc(Cl)c3O)CC2)N1` [Compound C0138M], for which the “MOR agonist activity … as agonist 0.1 μM” value was 126.9%; the “MOR agonist activity … 1 μM + BFNA” value amounted to 51.5%; the “MOR agonist activity … as agonist 1 μM” value is given as 183.9%.
For `N#Cc1ccc(S(=O)(=O)N2CCC3(CC2)OCCN3S(=O)(=O)c2ccc(C#N)cc2)cc1` [Compound C0008] the same measures were 71.2%, 2.8% and 201.6%.
On to `CC(O)c1ccc(S(=O)(=O)N2CCC3(CC2)OCCN3S(=O)(=O)c2ccc(C(C)O)cc2)cc1` (stereo not drawn) [Compound C0051], for which the “MOR agonist activity … as agonist 0.1 μM” value came to 94.4%; the “MOR agonist activity … 1 μM + BFNA” value was found to be 55.9%; the “MOR agonist activity … as agonist 1 μM” value worked out at 170.4%.

These data come from patent US8580809B2, “Filamin A-binding anti-inflammatory analgesic” (Pain Therapeutics, Inc., priority 2009, dated 2013).
